Data set [1] deals with T1, 3',5'-cyclic-AMP phosphodiesterase 4D (Homo sapiens, UniProt Q08499). Nature of the data set: Inhibition of PDE4D7 (unknown origin) using FAM-cyclic-3'5'-AMP as substrate at 100 nM incubated for 1 hrs by fluorescence polarization assay relative to control.
Data set [2] concerns the target T1, 3',5'-cyclic-AMP phosphodiesterase 4D. Nature of the data set: Inhibition of PDE4D7 (unknown origin) using FAM-cyclic-3'5'-AMP as substrate incubated for 1 hrs by fluorescence polarization assay.
Data set [3] shares this target. Nature of the data set: Inhibition of PDE4D7 (unknown origin) using FAM-cyclic-3'5'-AMP as substrate at 10 nM incubated for 1 hrs by fluorescence polarization assay relative to control.
Data set [4] deals with cGMP-inhibited 3',5'-cyclic phosphodiesterase 3B (Homo sapiens) (UniProt Q13370). Nature of the data set: Inhibition of PDE3B (unknown origin) using FAM-cyclic-3'5'-AMP as substrate at 10 uM incubated for 1 hrs by fluorescence polarization assay relative to control.
Data set [5] addresses High affinity 3',5'-cyclic-AMP phosphodiesterase 7A (Homo sapiens) (UniProt Q13946). The data set can be described thus: Inhibition of PDE7A (unknown origin) using FAM-cyclic-3'5'-AMP as substrate at 10 uM incubated for 1 hrs by fluorescence polarization assay relative to control.
Data set [6] addresses High affinity cAMP-specific and IBMX-insensitive 3',5'-cyclic phosphodiesterase 8A (Homo sapiens) (UniProt O60658). Nature of the data set: Inhibition of PDE8A (unknown origin) using FAM-cyclic-3'5'-AMP as substrate at 10 uM incubated for 1 hrs by fluorescence polarization assay relative to control.
The target in data set [7] is High affinity cGMP-specific 3',5'-cyclic phosphodiesterase 9A (Homo sapiens) (UniProt O76083). The data set can be described thus: Inhibition of PDE9A (unknown origin) using FAM-cyclic-3'5'-AMP as substrate at 10 uM incubated for 1 hrs by fluorescence polarization assay relative to control.
In another data set the test system is HT-22. Nature of the data set: Cytotoxicity against mouse HT-22 cells at 10 to 30 uM. Format: toxicity, cell-based. As to conditions: ht-22, 30 µM, dose 10-30 µM.
The target in data set [8] is T2, 3',5'-cyclic-AMP phosphodiesterase 4B (Homo sapiens, UniProt Q07343). The data set can be described thus: Inhibition of PDE4B (unknown origin) using FAM-cyclic-3'5'-AMP as substrate incubated for 1 hrs by fluorescence polarization assay.
The target of data set [9] is T1, 3',5'-cyclic-AMP phosphodiesterase 4D. The data set can be described thus: Inhibition of PDE4D (unknown origin) using FAM-cyclic-3'5'-AMP as substrate incubated for 1 hrs by fluorescence polarization assay.
Data set [10] can be described thus: Selectivity ratio of IC50 for PDE3B (unknown origin) to IC50 for PDE4D (unknown origin).
Data set [11] in a line: Selectivity ratio of IC50 for PDE7A (unknown origin) to IC50 for PDE4D (unknown origin).
Data set [12] in a line: Selectivity ratio of IC50 for PDE8A (unknown origin) to IC50 for PDE4D (unknown origin).
Data set [13] in a line: Selectivity ratio of IC50 for PDE9A (unknown origin) to IC50 for PDE4D (unknown origin).
Data set [14] in a line: Acute toxicity in male C57BL/6J mouse assessed as body weight loss at 1 g/Kg, po administered for 14 days. Format: organism-based. The conditions noted are these: in vivo, 1000 mg/kg, 336 h, time 14 day.
A short description of data set [15]: Toxicity in ketamine/xylazine-induced anesthetic male C57BL/6J mouse model assessed as emetogenic potential by measuring reduction in anesthesia duration at 5 to 10 mg/kg, po preadministered with compound for 15 mins followed by ketamine/xylazine administration. It counts as organism-based. As to conditions: in vivo, 0.25 h, dose 5-10 mg/kg.
Data set [16] can be described thus: Oral bioavailability in male C57BL/6J mouse. It counts as ADME, organism-based. As to conditions: in vivo.
Data set [17] has as its system RAW264.7. Nature of the data set: Antiinflammatory activity against mouse RAW264.7 cells assessed as inhibition of LPS-induced IL-6 mRNA production at 10 uM incubated for 24 hrs by SYBR green quantitative PCR analysis. It counts as functional, cell-based.
Data set [18] has as its system RAW264.7. Nature of the data set: Antiinflammatory activity against mouse RAW264.7 cells assessed as inhibition of LPS-induced TNF-alpha mRNA production at 10 uM incubated for 24 hrs by SYBR green quantitative PCR analysis. Format: functional, cell-based.
For data set [19], the system named is RAW264.7. Nature of the data set: Antiinflammatory activity against mouse RAW264.7 cells assessed as inhibition of LPS-induced iNOS mRNA production at 10 uM incubated for 24 hrs by SYBR green quantitative PCR analysis. Format: functional, cell-based.
For data set [20], the system named is Mus musculus. Nature of the data set: Antiinflammatory activity against DSS-induced colitis C57BL/6J mouse model assessed as decrease in body weight loss at 10 mg/kg, po pretreated with DSS for 10 days followed by twice daily compound administration for 8 days starting from day 3 to day 10 and measured on day 6. Format: functional, organism-based. As to conditions: time 4.0 day.

Data set [21] relates to Mus musculus. The data set can be described thus: Antiinflammatory activity against DSS-induced colitis C57BL/6J mouse model assessed as reduction in mucosal damage in colon at 3 to 10 mg/kg, po pretreated with DSS for 10 days followed by twice daily compound administration for 8 days starting from day 3 to day 10 by H and E staining based analysis. It counts as functional, organism-based. As to conditions: dose 3-10 mg/kg, time 8.0 day.

Data set [22] deals with Mus musculus. The data set can be described thus: Antiinflammatory activity against DSS-induced colitis C57BL/6J mouse model assessed as reduction in lamina propria breakdown in colon at 3 to 10 mg/kg, po pretreated with DSS for 10 days followed by twice daily compound administration for 8 days starting from day 3 to day 10 by H and E staining based analysis. The conditions noted are these: dose 3-10 mg/kg, time 8.0 day. Format: functional, organism-based.

In data set [23] the test system is Mus musculus. The data set can be described thus: Antiinflammatory activity against DSS-induced colitis C57BL/6J mouse model assessed as reduction in inflammatory cell infiltration in colon at 3 to 10 mg/kg, po pretreated with DSS for 10 days followed by twice daily compound administration for 8 days starting from day 3 to day 10 by H and E staining based analysis. As to conditions: dose 3-10 mg/kg, time 8.0 day. It counts as functional, organism-based.

In data set [24] the test system is Mus musculus. The data set can be described thus: Antiinflammatory activity against DSS-induced colitis C57BL/6J mouse model assessed as reduction in crypt structure loss in colon at 3 to 10 mg/kg, po pretreated with DSS for 10 days followed by twice daily compound administration for 8 days starting from day 3 to day 10 by H and E staining based analysis. It counts as functional, organism-based. The conditions noted are these: dose 3-10 mg/kg, time 8.0 day.

In data set [25] the test system is Mus musculus. Nature of the data set: Antiinflammatory activity against DSS-induced colitis C57BL/6J mouse model assessed as increase in colon length at 3 to 10 mg/kg, po pretreated with DSS for 10 days followed by twice daily compound administration for 8 days starting from day 3 to day 10. Format: functional, organism-based. The conditions noted are these: dose 3-10 mg/kg, time 8.0 day.

A short description of data set [26]: Acute toxicity in male C57BL/6J mouse assessed as animal death at 1 g/Kg, po administered for 14 days. It counts as organism-based. As to conditions: in vivo, 1000 mg/kg, 336 h, time 14 day.
Data set [27] relates to Mus musculus. Nature of the data set: Antiinflammatory activity against DSS-induced colitis C57BL/6J mouse model assessed as decrease in body weight loss at 3 mg/kg, po pretreated with DSS for 10 days followed by twice daily compound administration for 8 days starting from day 3 to day 10 relative to control. The conditions noted are these: time 8 day. Details: scale not given: the % may be the effect or the level left. It counts as functional.

Data set [28] deals with Mus musculus. Nature of the data set: Antiinflammatory activity against DSS-induced colitis C57BL/6J mouse model assessed as decrease in body weight loss at 10 mg/kg, po pretreated with DSS for 10 days followed by twice daily compound administration for 8 days starting from day 3 to day 10 relative to control. The conditions noted are these: time 8 day. Format: functional. Details: scale not given: the % may be the effect or the level left.

Data set [29] deals with Mus musculus. The data set can be described thus: Antiinflammatory activity against DSS-induced colitis C57BL/6J mouse model assessed as decrease in disease activity index at 10 mg/kg, po pretreated with DSS for 10 days followed by twice daily compound administration for 8 days starting from day 3 to day 10 relative to control. As to conditions: time 8.0 day. Format: functional, organism-based.

Data set [30] concerns the target T2, 3',5'-cyclic-AMP phosphodiesterase 4B. Nature of the data set: Inhibition of recombinant human PDE4B catalytic domain extracted from baculovirus infected Sf9 cells using […] preincubated for 20 mins followed by 2 mins incubation at 65 degreeC and measured 10 mins after substrate addition by scintillation counter.

The source made the active and inactive calls. No cut-off for these calls is given here.

T1 sequence (Q08499 whole entry): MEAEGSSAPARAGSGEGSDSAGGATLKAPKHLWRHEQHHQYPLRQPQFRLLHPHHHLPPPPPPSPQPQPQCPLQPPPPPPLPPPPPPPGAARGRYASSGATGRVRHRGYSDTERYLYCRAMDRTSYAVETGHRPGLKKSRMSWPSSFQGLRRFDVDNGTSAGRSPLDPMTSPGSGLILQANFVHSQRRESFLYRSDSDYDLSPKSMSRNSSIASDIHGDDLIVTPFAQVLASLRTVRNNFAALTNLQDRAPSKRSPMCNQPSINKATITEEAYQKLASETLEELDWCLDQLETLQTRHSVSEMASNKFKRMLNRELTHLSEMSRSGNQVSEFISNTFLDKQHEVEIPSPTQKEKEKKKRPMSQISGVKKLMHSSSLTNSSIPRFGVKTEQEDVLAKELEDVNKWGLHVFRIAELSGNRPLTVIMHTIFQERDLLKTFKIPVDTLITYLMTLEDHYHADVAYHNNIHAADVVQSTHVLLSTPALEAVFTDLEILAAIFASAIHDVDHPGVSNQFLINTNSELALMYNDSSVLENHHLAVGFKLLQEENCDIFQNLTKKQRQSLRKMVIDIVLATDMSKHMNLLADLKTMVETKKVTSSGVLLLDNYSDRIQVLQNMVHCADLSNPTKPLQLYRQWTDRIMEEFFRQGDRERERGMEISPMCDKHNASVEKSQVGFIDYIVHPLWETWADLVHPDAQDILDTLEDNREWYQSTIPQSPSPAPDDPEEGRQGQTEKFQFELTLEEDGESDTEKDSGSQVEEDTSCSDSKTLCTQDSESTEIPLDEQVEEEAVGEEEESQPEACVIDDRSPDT
T2 sequence (Q07343 whole entry): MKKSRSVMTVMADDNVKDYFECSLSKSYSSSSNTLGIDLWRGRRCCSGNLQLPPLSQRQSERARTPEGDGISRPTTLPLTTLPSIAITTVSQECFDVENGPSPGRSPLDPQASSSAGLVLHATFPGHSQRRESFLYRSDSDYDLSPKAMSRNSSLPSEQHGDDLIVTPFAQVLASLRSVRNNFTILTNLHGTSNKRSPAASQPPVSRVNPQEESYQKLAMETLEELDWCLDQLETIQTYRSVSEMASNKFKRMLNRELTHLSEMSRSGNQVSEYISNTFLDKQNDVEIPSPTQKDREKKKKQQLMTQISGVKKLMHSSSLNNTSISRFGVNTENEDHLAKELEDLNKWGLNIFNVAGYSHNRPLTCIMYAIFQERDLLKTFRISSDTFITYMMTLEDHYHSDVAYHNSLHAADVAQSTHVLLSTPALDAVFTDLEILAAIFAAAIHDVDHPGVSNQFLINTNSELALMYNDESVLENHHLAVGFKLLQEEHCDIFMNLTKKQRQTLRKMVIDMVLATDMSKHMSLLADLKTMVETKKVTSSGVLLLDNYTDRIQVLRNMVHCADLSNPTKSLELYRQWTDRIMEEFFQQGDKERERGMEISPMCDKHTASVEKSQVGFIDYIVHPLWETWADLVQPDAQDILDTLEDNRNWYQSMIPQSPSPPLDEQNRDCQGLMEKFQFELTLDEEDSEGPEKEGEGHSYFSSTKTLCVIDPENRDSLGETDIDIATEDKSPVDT
Sequence of High affinity cAMP-specific and IBMX-insensitive 3',5'-cyclic phosphodiesterase 8A (Homo sapiens) (O60658 whole entry): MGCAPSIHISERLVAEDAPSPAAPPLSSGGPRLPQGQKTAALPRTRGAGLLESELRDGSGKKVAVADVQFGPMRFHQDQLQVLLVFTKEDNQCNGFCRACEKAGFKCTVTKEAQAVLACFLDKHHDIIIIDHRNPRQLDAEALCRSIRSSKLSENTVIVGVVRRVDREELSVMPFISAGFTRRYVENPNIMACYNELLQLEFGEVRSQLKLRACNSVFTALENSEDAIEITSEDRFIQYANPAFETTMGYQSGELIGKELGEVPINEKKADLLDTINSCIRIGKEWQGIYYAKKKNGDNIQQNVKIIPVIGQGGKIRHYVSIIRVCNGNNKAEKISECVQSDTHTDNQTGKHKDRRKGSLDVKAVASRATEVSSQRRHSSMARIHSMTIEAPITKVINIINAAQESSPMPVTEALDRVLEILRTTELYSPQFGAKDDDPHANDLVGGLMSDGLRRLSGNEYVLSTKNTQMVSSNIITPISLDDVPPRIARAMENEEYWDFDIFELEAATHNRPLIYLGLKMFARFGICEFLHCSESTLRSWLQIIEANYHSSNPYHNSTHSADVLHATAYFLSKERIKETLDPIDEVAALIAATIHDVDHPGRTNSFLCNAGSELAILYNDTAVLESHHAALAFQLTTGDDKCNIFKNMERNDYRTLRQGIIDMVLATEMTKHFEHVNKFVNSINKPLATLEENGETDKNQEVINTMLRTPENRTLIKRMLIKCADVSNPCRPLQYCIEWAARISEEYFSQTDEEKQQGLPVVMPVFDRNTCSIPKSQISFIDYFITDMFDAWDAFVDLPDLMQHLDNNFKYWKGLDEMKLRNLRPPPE
Sequence of High affinity cGMP-specific 3',5'-cyclic phosphodiesterase 9A (Homo sapiens) (O76083 whole entry): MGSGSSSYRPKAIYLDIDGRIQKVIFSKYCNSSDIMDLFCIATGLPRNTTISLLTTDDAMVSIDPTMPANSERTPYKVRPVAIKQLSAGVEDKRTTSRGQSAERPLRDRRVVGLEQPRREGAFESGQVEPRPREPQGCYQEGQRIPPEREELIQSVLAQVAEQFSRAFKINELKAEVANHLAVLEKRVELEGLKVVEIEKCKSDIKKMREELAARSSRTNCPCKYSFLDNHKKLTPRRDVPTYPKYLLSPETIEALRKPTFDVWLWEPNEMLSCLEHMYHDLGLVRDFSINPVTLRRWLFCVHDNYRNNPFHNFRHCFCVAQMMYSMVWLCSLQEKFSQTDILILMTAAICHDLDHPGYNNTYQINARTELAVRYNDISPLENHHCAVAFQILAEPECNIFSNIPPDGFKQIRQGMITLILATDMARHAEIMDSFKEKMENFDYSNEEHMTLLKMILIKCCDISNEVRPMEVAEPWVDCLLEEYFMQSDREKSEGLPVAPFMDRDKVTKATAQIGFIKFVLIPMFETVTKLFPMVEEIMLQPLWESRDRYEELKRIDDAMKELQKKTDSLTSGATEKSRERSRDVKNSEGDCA
Sequence of High affinity 3',5'-cyclic-AMP phosphodiesterase 7A (Homo sapiens) (Q13946 whole entry): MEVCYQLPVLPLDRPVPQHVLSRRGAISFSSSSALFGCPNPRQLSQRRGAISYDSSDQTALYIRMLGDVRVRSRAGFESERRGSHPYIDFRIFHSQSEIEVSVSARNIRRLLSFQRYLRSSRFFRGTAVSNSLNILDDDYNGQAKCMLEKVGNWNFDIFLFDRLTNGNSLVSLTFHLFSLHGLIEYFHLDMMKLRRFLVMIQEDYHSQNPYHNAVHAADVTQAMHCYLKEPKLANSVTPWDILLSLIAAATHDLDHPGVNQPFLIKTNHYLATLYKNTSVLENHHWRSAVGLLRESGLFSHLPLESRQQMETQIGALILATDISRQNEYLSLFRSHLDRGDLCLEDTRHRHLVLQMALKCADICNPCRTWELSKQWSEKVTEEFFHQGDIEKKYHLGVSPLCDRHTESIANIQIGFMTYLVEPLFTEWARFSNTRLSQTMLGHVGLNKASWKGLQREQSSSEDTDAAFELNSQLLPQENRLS
Sequence of cGMP-inhibited 3',5'-cyclic phosphodiesterase 3B (Homo sapiens) (Q13370 whole entry, looked up): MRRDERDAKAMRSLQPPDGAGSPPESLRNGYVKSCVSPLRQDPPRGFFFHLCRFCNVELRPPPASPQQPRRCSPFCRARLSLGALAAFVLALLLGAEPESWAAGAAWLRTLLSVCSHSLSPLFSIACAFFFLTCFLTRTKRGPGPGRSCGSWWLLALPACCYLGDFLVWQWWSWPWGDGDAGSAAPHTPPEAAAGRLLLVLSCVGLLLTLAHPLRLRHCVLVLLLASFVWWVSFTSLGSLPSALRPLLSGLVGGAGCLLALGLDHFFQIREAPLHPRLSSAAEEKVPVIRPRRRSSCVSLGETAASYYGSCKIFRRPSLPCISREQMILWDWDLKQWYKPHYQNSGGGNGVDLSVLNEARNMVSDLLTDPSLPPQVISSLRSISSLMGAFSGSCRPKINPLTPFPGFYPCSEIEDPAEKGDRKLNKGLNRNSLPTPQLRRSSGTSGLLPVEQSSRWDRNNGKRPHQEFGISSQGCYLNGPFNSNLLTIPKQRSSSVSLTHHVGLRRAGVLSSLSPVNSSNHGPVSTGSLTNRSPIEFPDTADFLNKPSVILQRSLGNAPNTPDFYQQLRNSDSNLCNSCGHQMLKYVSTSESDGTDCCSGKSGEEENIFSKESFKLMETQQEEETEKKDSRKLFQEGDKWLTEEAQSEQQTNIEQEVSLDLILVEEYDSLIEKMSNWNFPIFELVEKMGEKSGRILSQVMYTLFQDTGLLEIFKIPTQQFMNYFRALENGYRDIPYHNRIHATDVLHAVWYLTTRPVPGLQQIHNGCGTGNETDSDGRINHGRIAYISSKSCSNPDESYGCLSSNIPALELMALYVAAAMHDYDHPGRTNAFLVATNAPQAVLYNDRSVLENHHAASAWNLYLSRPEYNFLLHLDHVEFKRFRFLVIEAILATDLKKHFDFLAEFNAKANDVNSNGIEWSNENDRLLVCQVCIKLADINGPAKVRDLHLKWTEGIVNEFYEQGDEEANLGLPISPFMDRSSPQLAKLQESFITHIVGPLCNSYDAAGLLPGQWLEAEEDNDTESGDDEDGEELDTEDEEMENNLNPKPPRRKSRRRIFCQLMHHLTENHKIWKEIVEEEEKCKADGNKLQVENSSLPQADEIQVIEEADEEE

For `COc1cc(-c2ccc(OC(F)F)c3nn(C4CC4)cc23)cc(OC)c1OC`, the inhibition came out at 86% in data set [1]; 42% in data set [3]; 6% in [4]; 14% in data set [5]; 12% in data set [6]; 7% in data set [7]. For the same compound, the IC50 in data set [2] worked out at 10.5 nM; in data set [8], 64.4 nM; in [9], 65.7 nM. Besides, the Activity result was “Non-Toxic” in the data set on HT-22; “Non-Toxic” in [14]; “Non-Toxic” in data set [15]; “Non-Toxic” in data set [26]; 16.7% with Mus musculus [27]; 4.9% in the data set with Mus musculus [28]. In addition, the Ratio IC50 in [10], in data set [11], in data set [12] and in data set [13] was above 156 in each case. Also, the bioavailability in data set [16] was 5%. Moreover, the outcome in the data set on RAW264.7 [17], in the data set with RAW264.7 [18], in the data set on RAW264.7 [19], with Mus musculus [20], in the data set on Mus musculus [21] and with Mus musculus [22] was Active. For the same compound, the result in the data set on Mus musculus [23], in the data set on Mus musculus [24], with Mus musculus [25] and in the data set on Mus musculus [29] was Active.

Turning to `COc1ccc(-c2ccc3[nH]c(=O)ccc3c2)n2cc(C(F)(F)F)nc12`, in data set [30], the concentration for half-maximal inhibition (IC50) is below 100 nM.

(Values after ChEMBL document CHEMBL5614392, “Discovery of novel N2-indazole derivatives as phosphodiesterase 4 inhibitors for the treatment of inflammatory bowel disease” (Eur J Med Chem, 2024).)
